Reference: ChEMBL document CHEMBL5030517, “6-Halopyridylmethylidene Penicillin-Based Sulfones Efficiently Inactivate the Natural Resistance of Pseudomonas aeruginosa to β-Lactam Antibiotics” (J Med Chem, 2021)
≈ marks a conversion by molar mass, not a printed value. Calls of active or inactive are those of the source. No cut-off for these calls is given here.

Columns and labels:
[1] = tested on: Pseudomonas aeruginosa PAO1; experiment: Inhibition of beta-lactamase activity in Pseudomonas aeruginosa PAO1 deltadacBdeltapbpGdeltadacC assessed as MIC for cefpodoxime antibacterial activity at 16 mg/L by broth microdilution method
[2] = tested on: Pseudomonas aeruginosa PAO1; experiment: Inhibition beta lactamase PDC-1 in Pseudomonas aeruginosa PAO1 assessed as ratio of kinact/K1 using nitrocefin as substrate measured by 96 well microtitre plate
[3] = tested on: Pseudomonas aeruginosa PAO1; experiment: Inhibition of beta-lactamase activity in Pseudomonas aeruginosa PAO1 13/09-018 (ST-175) assessed as MIC for cefpodoxime antibacterial activity at 16 mg/L by broth microdilution method
[4] = tested on: Pseudomonas aeruginosa PAO1; experiment: Inhibition of beta-lactamase activity in Pseudomonas aeruginosa PAO1 deltaC+pUCP-(PDC-5) assessed as MIC for cefpodoxime antibacterial activity at 4 mg/L by broth microdilution method
[5] = tested on: Pseudomonas aeruginosa PAO1; experiment: Inhibition of beta-lactamase activity in Pseudomonas aeruginosa PAO1 deltaDdeltsDh2deltaDh3 assessed as MIC for cefpodoxime antibacterial activity at 16 mg/L by broth microdilution method
[6] = tested on: Pseudomonas aeruginosa PAO1; experiment: Inhibition of beta-lactamase activity in Pseudomonas aeruginosa PAO1 17/14-017 (ST-235) assessed as MIC for cefpodoxime antibacterial activity at 4 mg/L by broth microdilution method
[7] = tested on: Pseudomonas aeruginosa PAO1; experiment: Inhibition of beta-lactamase activity in Pseudomonas aeruginosa PAO1 deltadacB assessed as MIC for cefpodoxime antibacterial activity at 4 mg/L by broth microdilution method
[8] = tested on: Pseudomonas aeruginosa PAO1; experiment: Inhibition beta lactamase PDC-1 in Pseudomonas aeruginosa PAO1 assessed half life of nitrocefin substrate measured by 96 well microtitre plate assay
[9] = tested on: Pseudomonas aeruginosa PAO1; experiment: Inhibition of beta-lactamase activity in Pseudomonas aeruginosa PAO1 deltadacB assessed as MIC for cefpodoxime antibacterial activity at 16 mg/L by broth microdilution method
[10] = tested on: Pseudomonas aeruginosa PAO1; experiment: Inhibition of beta-lactamase activity in Pseudomonas aeruginosa PAO1 deltadacBdeltadacC assessed as MIC for cefpodoxime antibacterial activity at 16 mg/L by broth microdilution method
[11] = tested on: Pseudomonas aeruginosa PAO1; experiment: Inhibition of beta-lactamase activity in Pseudomonas aeruginosa PAO1 deltaC assessed as MIC for cefpodoxime antibacterial activity at 4 mg/L by broth microdilution method
[12] = tested on: Pseudomonas aeruginosa PAO1; experiment: Inhibition of beta-lactamase activity in Pseudomonas aeruginosa PAO1 deltadacBdeltadacC assessed as MIC for cefpodoxime antibacterial activity at 4 mg/L by broth microdilution method
[13] = tested on: Pseudomonas aeruginosa PAO1; experiment: Inhibition of beta-lactamase activity in Pseudomonas aeruginosa PAO1 deltaampD assessed as MIC for cefpodoxime antibacterial activity at 16 mg/L by broth microdilution method
[14] = tested on: Pseudomonas aeruginosa PAO1; experiment: Inhibition of beta lactamase PDC-1 in Pseudomonas aeruginosa PAO1 assessed as reduction in enzyme activity using nitrocefin as chromogenic substrate preincubated for 10 min using 96 well microtiter plate
[15] = tested on: Pseudomonas aeruginosa PAO1; experiment: Inhibition of beta-lactamase activity in Pseudomonas aeruginosa PAO1 53/22-113 (ST-244) assessed as MIC for cefpodoxime antibacterial activity at 16 mg/L by broth microdilution method
[16] = tested on: Pseudomonas aeruginosa PAO1; experiment: Inhibition beta lactamase PDC-1 in Pseudomonas aeruginosa PAO1 assessed as inactivation efficiency by measuring acylation rate (k2/K) using nitrocefin as substrate measured by 96 well microtitre plate
[17] = tested on: Pseudomonas aeruginosa PAO1; experiment: Inhibition of beta-lactamase activity in Pseudomonas aeruginosa PAO1 PAHUAC-14 (ST-966) assessed as MIC for cefpodoxime antibacterial activity at 16 mg/L by broth microdilution method
[18] = tested on: Pseudomonas aeruginosa PAO1; experiment: Inhibition of beta-lactamase activity in Pseudomonas aeruginosa PAO1 23/14-053 (ST-309) assessed as MIC for cefpodoxime antibacterial activity at 4 mg/L by broth microdilution method
[19] = tested on: Pseudomonas aeruginosa PAO1; experiment: Inhibition of beta-lactamase activity in Pseudomonas aeruginosa PAO1 deltadacBdeltaampD assessed as MIC for cefpodoxime antibacterial activity at 16 mg/L by broth microdilution method
[20] = tested on: Pseudomonas aeruginosa PAO1; experiment: Inhibition of beta-lactamase activity in Pseudomonas aeruginosa PAO1 6/04-224 (ST-175) assessed as MIC for cefpodoxime antibacterial activity at 16 mg/L by broth microdilution method
[21] = tested on: Pseudomonas aeruginosa PAO1; experiment: Inhibition of beta-lactamase activity in Pseudomonas aeruginosa PAO1 deltaDdeltsDh2deltaDh3 assessed as MIC for cefpodoxime antibacterial activity at 4 mg/L by broth microdilution method
[22] = tested on: Pseudomonas aeruginosa PAO1; experiment: Inhibition of beta-lactamase activity in Pseudomonas aeruginosa PAO1 53/22-113 (ST-244) assessed as MIC for cefpodoxime antibacterial activity at 4 mg/L by broth microdilution method
[23] = tested on: Pseudomonas aeruginosa PAO1; experiment: Inhibition of beta-lactamase activity in Pseudomonas aeruginosa PAO1 deltaC+pUCP-(PDC-1) assessed as MIC for cefpodoxime antibacterial activity at 16 mg/L by broth microdilution method
[24] = tested on: Pseudomonas aeruginosa PAO1; experiment: Inhibition of beta-lactamase activity in Pseudomonas aeruginosa PAO1 PAHUAC-27(ST-22) assessed as MIC for cefpodoxime antibacterial activity at 4 mg/L by broth microdilution method
[25] = tested on: Pseudomonas aeruginosa PAO1; experiment: Inhibition of beta-lactamase activity in Pseudomonas aeruginosa PAO1 deltadacBdeltaampD assessed as MIC for cefpodoxime antibacterial activity at 4 mg/L by broth microdilution method
[26] = Inhibition beta lactamase PDC-1 in Pseudomonas aeruginosa PAO1 using nitrocefin as substrate measured by 96 well microtitre plate
[27] = tested on: Pseudomonas aeruginosa PAO1; experiment: Inhibition of beta-lactamase activity in Pseudomonas aeruginosa PAO1 deltaampD assessed as MIC for cefpodoxime antibacterial activity at 4 mg/L by broth microdilution method
[28] = tested on: Pseudomonas aeruginosa PAO1; experiment: Inhibition beta lactamase PDC-1 in Pseudomonas aeruginosa PAO1 assessed as maximum rate of inactivation using nitrocefin as substrate measured by 96 well microtitre plate
Pseudomonas aeruginosa = experiment: Inhibition of beta lactamase PDC-1 in Pseudomonas aeruginosa PAO1 for 30 min using MALDI TOF-MS analysis
[29] = tested on: Pseudomonas aeruginosa PAO1; experiment: Inhibition of beta-lactamase activity in Pseudomonas aeruginosa PAO1 PAHUAC-14 (ST-966) assessed as MIC for cefpodoxime antibacterial activity at 4 mg/L by broth microdilution method
[30] = tested on: Pseudomonas aeruginosa PAO1; experiment: Inhibition of beta-lactamase activity in Pseudomonas aeruginosa PAO1 13/09-018 (ST-175) assessed as MIC for cefpodoxime antibacterial activity at 4 mg/L by broth microdilution method
[31] = tested on: Pseudomonas aeruginosa PAO1; experiment: Inhibition of beta-lactamase activity in Pseudomonas aeruginosa PAO1 6/04-224 (ST-175) assessed as MIC for cefpodoxime antibacterial activity at 4 mg/L by broth microdilution method
[32] = tested on: Pseudomonas aeruginosa PAO1; experiment: Inhibition of beta-lactamase activity in Pseudomonas aeruginosa PAO1 assessed as MIC for cefpodoxime antibacterial activity at 16 mg/L by broth microdilution method
[33] = tested on: Pseudomonas aeruginosa PAO1; experiment: Inhibition of beta-lactamase activity in Pseudomonas aeruginosa PAO1 23/14-053 (ST-309) assessed as MIC for cefpodoxime antibacterial activity at 16 mg/L by broth microdilution method
[34] = tested on: Pseudomonas aeruginosa PAO1; experiment: Inhibition of beta-lactamase activity in Pseudomonas aeruginosa PAO1 17/14-017 (ST-235) assessed as MIC for cefpodoxime antibacterial activity at 16 mg/L by broth microdilution method
[35] = tested on: Pseudomonas aeruginosa PAO1; experiment: Inhibition of beta-lactamase activity in Pseudomonas aeruginosa PAO1 36/14-210 (ST-235) assessed as MIC for cefpodoxime antibacterial activity at 16 mg/L by broth microdilution method
[36] = tested on: Pseudomonas aeruginosa PAO1; experiment: Inhibition of beta-lactamase activity in Pseudomonas aeruginosa PAO1 36/14-210 (ST-235) assessed as MIC for cefpodoxime antibacterial activity at 4 mg/L by broth microdilution method
[37] = tested on: Pseudomonas aeruginosa PAO1; experiment: Inhibition of beta-lactamase activity in Pseudomonas aeruginosa PAO1 deltaC+pUCP-(PDC-5) assessed as MIC for cefpodoxime antibacterial activity at 16 mg/L by broth microdilution method
[38] = tested on: Pseudomonas aeruginosa PAO1; experiment: Inhibition of beta-lactamase activity in Pseudomonas aeruginosa PAO1 assessed as MIC for cefpodoxime antibacterial activity at 4 mg/L by broth microdilution method
[39] = tested on: Pseudomonas aeruginosa PAO1; experiment: Inhibition of beta-lactamase activity in Pseudomonas aeruginosa PAO1 deltaC assessed as MIC for cefpodoxime antibacterial activity at 16 mg/L by broth microdilution method
[40] = tested on: Pseudomonas aeruginosa PAO1; experiment: Inhibition of beta-lactamase activity in Pseudomonas aeruginosa PAO1 deltadacBdeltapbpGdeltadacC assessed as MIC for cefpodoxime antibacterial activity at 4 mg/L by broth microdilution method
[41] = tested on: Pseudomonas aeruginosa PAO1; experiment: Inhibition of beta-lactamase activity in Pseudomonas aeruginosa PAO1 PAHUAC-27(ST-22) assessed as MIC for cefpodoxime antibacterial activity at 16 mg/L by broth microdilution method
[42] = Inhibition beta lactamase PDC-1 in Pseudomonas aeruginosa PAO1 assessed as apparent inhibition constant using nitrocefin as substrate measured by 96 well microtitre plate; settings: read-out: Ki(app)
[43] = tested on: Pseudomonas aeruginosa PAO1; experiment: Inhibition of beta-lactamase activity in Pseudomonas aeruginosa PAO1 deltaC+pUCP-(PDC-1) assessed as MIC for cefpodoxime antibacterial activity at 4 mg/L by broth microdilution method
[44] = tested on: Pseudomonas aeruginosa PAO1; experiment: Inhibition beta lactamase PDC-1 in Pseudomonas aeruginosa PAO1 assessed as deacylation off-rate using nitrocefin as substrate at 30 mins measured by 96 well microtitre plate

## C[C@]1(COC(=O)Cc2ccc(O)c(O)c2)[C@H](C(=O)O)N2C(=O)/C(=C/c3ccc(F)cn3)[C@H]2S1(=O)=O
[1]
  MIC: 0.5 µg/mL (≈ 0.987 µM)
[2]
  K: 5 10^5/M/s
[3]
  MIC: 8 µg/mL (≈ 15.8 µM)
[4]
  MIC: 2 µg/mL (≈ 3.95 µM)
[5]
  MIC: 1 µg/mL (≈ 1.97 µM)
[6]
  MIC: 4 µg/mL (≈ 7.9 µM)
[7]
  MIC: 1 µg/mL (≈ 1.97 µM)
[8]
  T1/2: 78 min
[9]
  MIC: 0.5 µg/mL (≈ 0.987 µM)
[10]
  MIC: 0.5 µg/mL (≈ 0.987 µM)
[11]
  MIC: 1 µg/mL (≈ 1.97 µM)
[12]
  MIC: 2 µg/mL (≈ 3.95 µM)
[13]
  MIC: 1 µg/mL (≈ 1.97 µM)
[14]
  inhibition: inactive
[15]
  MIC: 4 µg/mL (≈ 7.9 µM)
[16]
  k2/K inactivation efficiency: 6.8 M⁻¹ s⁻¹
[17]
  MIC: 2 µg/mL (≈ 3.95 µM)
[18]
  MIC: 2 µg/mL (≈ 3.95 µM)
[19]
  MIC: 2 µg/mL (≈ 3.95 µM)
[20]
  MIC: 8 µg/mL (≈ 15.8 µM)
[21]
  MIC: 8 µg/mL (≈ 15.8 µM)
[22]
  MIC: 8 µg/mL (≈ 15.8 µM)
[23]
  MIC: 1 µg/mL (≈ 1.97 µM)
[24]
  MIC: 4 µg/mL (≈ 7.9 µM)
[25]
  MIC: 8 µg/mL (≈ 15.8 µM)
[26]
  IC50: 6.3 nM
[27]
  MIC: 8 µg/mL (≈ 15.8 µM)
[28]
  Kinact: 0.013 s⁻¹
Pseudomonas aeruginosa
  inhibition: inactive
[29]
  MIC: 8 µg/mL (≈ 15.8 µM)
[30]
  MIC: 2 µg/mL (≈ 3.95 µM)
[31]
  MIC: 8 µg/mL (≈ 15.8 µM)
[32]
  MIC: 1 µg/mL (≈ 1.97 µM)
[33]
  MIC: 2 µg/mL (≈ 3.95 µM)
[34]
  MIC: 4 µg/mL (≈ 7.9 µM)
[35]
  MIC: 8 µg/mL (≈ 15.8 µM)
[36]
  MIC: 16 µg/mL (≈ 31.6 µM)
[37]
  MIC: 2 µg/mL (≈ 3.95 µM)
[38]
  MIC: 1 µg/mL (≈ 1.97 µM)
[39]
  MIC: 1 µg/mL (≈ 1.97 µM)
[40]
  MIC: 1 µg/mL (≈ 1.97 µM)
[41]
  MIC: 2 µg/mL (≈ 3.95 µM)
[42]
  Ki: 110 nM
[43]
  MIC: 1 µg/mL (≈ 1.97 µM)
[44]
  K: 9 10^-2/min

## NC(=O)[C@@H]1CC[C@@H]2CN1C(=O)N2OS(=O)(=O)O [AVIBACTAM SODIUM]
[1]
  MIC: 0.5 µg/mL
[3]
  MIC: 8 µg/mL
[4]
  MIC: 2 µg/mL
[5]
  MIC: 1 µg/mL
[6]
  MIC: 4 µg/mL
[7]
  MIC: 1 µg/mL
[8]
  T1/2: 28 min
[9]
  MIC: 0.5 µg/mL
[10]
  MIC: 0.5 µg/mL
[11]
  MIC: 1 µg/mL
[12]
  MIC: 1 µg/mL
[13]
  MIC: 0.5 µg/mL
[15]
  MIC: 4 µg/mL
[16]
  k2/K inactivation efficiency: 1370 M⁻¹ s⁻¹
[17]
  MIC: 2 µg/mL
[18]
  MIC: 1 µg/mL
[19]
  MIC: 1 µg/mL
[20]
  MIC: 8 µg/mL
[21]
  MIC: 2 µg/mL
[22]
  MIC: 4 µg/mL
[23]
  MIC: 1 µg/mL
[24]
  MIC: 1 µg/mL
[25]
  MIC: 4 µg/mL
[26]
  IC50: 51 nM
[27]
  MIC: 1 µg/mL
[29]
  MIC: 4 µg/mL
[30]
  MIC: 2 µg/mL
[31]
  MIC: 8 µg/mL
[32]
  MIC: 1 µg/mL
[33]
  MIC: 1 µg/mL
[34]
  MIC: 4 µg/mL
[35]
  MIC: 4 µg/mL
[36]
  MIC: 8 µg/mL
[37]
  MIC: 1 µg/mL
[38]
  MIC: 1 µg/mL
[39]
  MIC: 1 µg/mL
[40]
  MIC: 1 µg/mL
[41]
  MIC: 1 µg/mL
[42]
  Ki: 990 nM
[43]
  MIC: 1 µg/mL
[44]
  K: 2.6 10^-2/min
